Key:
[1] = system: Gray mold germs (Botrytis cinerea, strain 2018105); assay: Evaluation test for gray mold (mycelial growth on PDA medium); type: cell-based; conditions: final concentration 500 ppm in PDA medium; mycelia diameter after two days at 27° C.; average of 3
Procedure: The fluorine-containing pyrimidine compound prepared in Example 1, 2, 3, 4, 12 or 16 was dissolved in DMSO and diluted to a concentration of 50000 ppm. To 3 ml of a dissolved PDA medium, 30 μL of diluted DMSO solution each was added and stirred with a pipette. The mixture was placed in a well of a 6-well plate and allowed to solidify (final concentration: 500 ppm, repeated 3 times each). Gray mold germs (Botrytis cinerea, strain 2018105) grown in a PDA medium was cut out together with the medium with a biopsy punch having a diameter of 0.4 cm, and placed on the center of the PDA medium in the 6-well plate containing the DMSO solution so as to be grown at 27° C. After two days, the diameters of mycelia were measured and the control value was calculated. The control value was calculated according to the following formula. In the formula described below, “untreated” represents PDA medium to which only DMSO was added as the test solution. [formula]

cucumber powdery mildew = assay: Evaluation test for powdery mildew of cucumbers (cucumber leaf disc); type: in vivo; conditions: blotch area after 12 days, 25° C.
Procedure: A fluorine-containing pyrimidine compound prepared in Examples 12, 13 or 15 was dissolved in acetone and diluted to a concentration of 500 ppm. Subsequently, a cucumber leaf disc (diameter 20 mm) was placed in a diluted acetone solution and completely wetted. The cucumber leaf disc was then placed so that the back surface of the cucumber leaf disc contacted a separately prepared plain agar medium, and air-dried. After air-drying, a cucumber powdery mildew spore suspension was evenly sprayed on the cucumber leaf disc and air-dried. The cucumber leaf disc was then allowed to stand in an incubator (25° C., illuminated for 12 hours), and after 12 days, the blotch area was examined to calculate the control value. The control value was calculated according to the following formula. In the following formula, “untreated” means that the cucumber leaf disc was wetted with only acetone as the test solution, and “untreated section” represents the corresponding section. A fluorine-containing pyrimidine compound prepared in Examples 12, 13 or 15 was dissolved in acetone and diluted to a concentration of 100 ppm. Subsequently, a cucumber leaf disc (diameter 20 mm) was placed in a diluted acetone solution and completely wetted. The cucumber leaf disc was placed so that the back surface of the cucumber leaf disc contacted a separately prepared plain agar medium, and air-dried. After air-drying, a cucumber powdery mildew spore suspension was evenly prayed on the cucumber leaf disc and air-dried. The cucumber leaf disc was then allowed to stand in an incubator (25° C., illuminated for 12 hours), and after 12 days, the blotch area was examined to calculate the control value. The control value was calculated according to the following formula. In the following formula, “untreated” means that the cucumber leaf disc was wetted with only acetone as the test solution, and “untreated section” represents the corresponding section. [formula] (Evaluation Test for Gray Mold (500 ppm))

| SMILES | Control value [1] | Control value (cucumber powdery mildew; 100 ppm in acetone) | Control value (cucumber powdery mildew; 500 ppm in acetone) |
| --- | --- | --- | --- |
| COc1nc(-c2ccccn2)nc(Nc2ccccc2)c1C(F)(F)F [Example 1, 6-methoxy-N-phenyl-2-(2-pyridyl)-5-(trifluoromethyl)-4-pyrimidinamine] | 90.5 |  |  |
| COc1nc(-c2ccccn2)nc(Nc2cccc(C)c2)c1C(F)(F)F [Example 2, 6-methoxy-N-(3-methylphenyl)-2-(2-pyridyl)-5-(trifluoromethyl)-4-pyrimidinamine] | 86.8 |  |  |
| CCCCc1ccc(Nc2nc(-c3ccccn3)nc(OC)c2C(F)(F)F)cc1 [Example 3, N-(4-butylphenyl)-6-methoxy-2-(2-pyridyl)-5-(trifluoromethyl)-4-pyrimidinamine] | 76.9 |  |  |
| COc1nc(-c2ccccn2)nc(Nc2ccc(C)c(C)c2)c1C(F)(F)F [Example 4, 6-methoxy-N-(3,4-dimethylphenyl)-2-(2-pyridyl)-5-(trifluoromethyl)-4-pyrimidinamine] | 86.8 |  |  |
| COc1nc(-c2ccccn2)nc(Nc2ccc(C)cc2C)c1C(F)(F)F [Example 12, 6-methoxy-N-(2,4-dimethylphenyl)-2-(2-pyridyl)-5-(trifluoromethyl)-4-pyrimidinamine] | 94.3 | 91.8 | 100.0 |
| COc1nc(-c2ccccn2)nc(Nc2ccc(Cl)cc2)c1C(F)(F)F [Example 13, N-(4-chlorophenyl)-6-methoxy-2-(2-pyridyl)-5-(trifluoromethyl)-4-pyrimidinamine] |  | 80.0 | 98.8 |
| COc1nc(-c2ccccn2)nc(Nc2ccc(C)cc2)c1C(F)(F)F [Example 15, 6-methoxy-N-(4-methylphenyl)-2-(2-pyridyl)-5-(trifluoromethyl)-4-pyrimidinamine] |  | 100.0 | 100.0 |
| FC(F)(F)c1c(Cl)nc(-c2ccccn2)nc1Nc1ccccc1 [Example 16, 6-chloro-N-phenyl-2-(2-pyridyl)-5-(trifluoromethyl)-4-pyrimidinamine] | 92.4 |  |  |

Reference: patent US12522580B2, “Fluorine-containing pyrimidine compounds, harmful fungus control agent, and method for producing fluorine-containing pyrimidine compounds” (UNIMATEC CO., LTD., priority 2021, dated 2026)
